From publication PMC11672562, “Synthesis and Antibacterial Activity of New 6″-Modified Tobramycin Derivatives” (Antibiotics, 2024)
Converted amounts (≈) assume the structure as drawn.

How the values were obtained:
E. coli ATCC 25922 = assay: MIC, broth microdilution, E. coli ATCC 25922; type: cell-based; conditions: for MIC: Escherichia coli, ATCC25922, Table 1, read-out: MIC
Experimental: (§1) The microbial strains used in this study were obtained from the collection of the Gause Institute of New Antibiotics. […] Storage was carried out in accordance with CLSI guidelines. Prior to experimentation, the bacterial strains were revived from cryopreservation by inoculating them onto trypticase soy agar (Becton, Dickinson, France) and incubating at (36 ± 1) °C for 16–24 h. Individual morphologically homogeneous colonies were then suspended in sterile physiological saline, and the turbidity of the suspension was adjusted to 0.5 McFarland units using a DEN-1 spectrophotometer (Biosan, Riga, Latvia), which corresponds to a concentration of 1.5 × 10^8 CFU/mL.
(§2) The samples were dissolved in sterile distilled water or dimethyl sulfoxide (DMSO), depending on the physicochemical properties of the compounds under investigation, to a concentration of 10,000 µg/mL.
(§3) Activity was evaluated by determining the minimum inhibitory concentration (MIC) values using the microdilution method in Mueller–Hinton Broth (Beckton and Dickinson, Le Pont-de-Claix, France), in accordance with the standard procedure for assessing the antimicrobial susceptibility of microorganisms.
(§4) The analysis was conducted in 96-well microtiter plates (Medpolymer, Saint Petersburg, Russia). The bacterial inoculum was introduced within 15 min of preparation. […] Microbial growth in the presence of the tested compounds was compared to the growth control (without exposure to the test samples). The MIC was defined as the lowest concentration at which visible microbial growth was inhibited.
(§5) The MIC values of the reference strains were required to fall within the acceptable ranges specified in [30], provided that standard assay conditions were maintained.

E. coli JW5503 = assay: MIC, broth microdilution, E. coli JW5503; type: cell-based; conditions: Escherichia coli, JW5503
Experimental: as §1, §2, §3, §4

P. aeruginosa ATCC 27853 = assay: MIC, broth microdilution, P. aeruginosa ATCC 27853; type: cell-based; conditions: for MIC: Pseudomonas aeruginosa, ATCC27853, P. aeruginosa ATCC 27853, Table 1, read-out: MIC
Experimental: The microbial strains used in this study were obtained from the collection of the Gause Institute of New Antibiotics. […] Storage was carried out in accordance with CLSI guidelines.
as §3, §4, §5

MTT cytotoxicity assay = type: cell-based; conditions: human, MTT test, HEK293T cells
Experimental: An MTT assay was conducted to assess the cytotoxicity of compounds on HEK293T cell lines. Cell line HEK293T was kindly provided by Dr. E. Knyazhanskaya. A total of 2500 cells per well were seeded into 96-well plates containing 100 μL of DMEM/F12 medium (Paneco LLC, Moscow, Russia) and incubated at 37 °C with 5% CO2 for 24 h prior to treatment. Dilutions of the test compounds 4a, 4b, 6a, and 6b, prepared in deionized sterile water, were added in 11 μL aliquots to achieve final concentrations ranging from 8.75 to 140 μg/mL (five dilutions per compound) in triplicate. The cells were incubated with the compounds for 72 h, after which 0.5 mg/mL of MTT reagent (Paneco LLC, Russia) was added. Following a 1.5 h incubation, the medium was removed, and 120 μL of DMSO was added to dissolve the blue formazan derivative formed by metabolically active cells. The absorbance at 565 nm was measured using a plate reader, and the data were normalized to untreated control cells. The half-maximal inhibitory concentration (IC50) was calculated using GraphPad Prism 5 software (GraphPad Software, Inc., San Diego, CA, USA).

[1] = tested on: E. coli S30 Extract System, firefly luciferase synthesis; assay: Cell-free translation inhibition assay (firefly luciferase synthesis); type: biochemical; conditions: final concentration of 2 μM; water = 100
Experimental: The inhibitory effects of the tested compounds on in vitro firefly luciferase synthesis were evaluated using the E. coli S30 Extract System for Linear Templates (Promega, Madison, WI, USA), as described previously. Briefly, reaction mixtures with a total volume of 5 μL were prepared, containing 0.1 mM of a mixture of all canonical amino acids, 4 U of RiboLock RNase Inhibitor (Thermo Fisher Scientific, Waltham, MA, USA), and 2 μM of the tested compounds. After pre-incubation at room temperature for 5 min, 100 ng of in vitro-transcribed firefly luciferase mRNA was added. The mixtures were then incubated at 37 °C for 20 min. After incubation, each reaction was supplemented with 5 μL of Bright-Glo™ reagent (Promega, Madison, WI, USA), and chemiluminescence was measured using a VICTOR X5 Multilabel Plate Reader (PerkinElmer, Waltham, MA, USA). The luminescence values were normalized to the negative control (water), which was assigned 100% activity.

[2] = tested on: E. coli JW5503 transformed with pJC27 plasmids; assay: Translation accuracy reporter (mutant β-galactosidase, X-Gal staining); type: cell-based; conditions: 4a,b, 6a,b and tobramycin 50 mg/mL; streptomycin, kanamycin 5 mg/mL; rifampicin 1 mg/mL
Source text: It is known that tobramycin inhibits protein biosynthesis by the blocking of initiation and inducing translation errors. We have tested whether the new tobramycin derivatives 4a,b and 6a,b retain the ability to induce translation errors. This assay uses an E. coli strain with a plasmid construct that encodes beta-galactosidase in such a way that a functional protein is only synthesized in the presence of translation errors. If the mechanism of action of the antibiotic is related to the translation errors, we observe indigo blue staining along the edge of the inhibition zone because functional b-galactosidase degrades the substrate X-Gal. As a result, if the antibiotic causes translation errors, blue staining forms around the edge of the inhibition zone. […] According to this, an introduction at the 6″-position of the aminoalkylamino or guanidinoalkylamino residues of tobramycin retains an original mechanism of aminoglycoside’s antibacterial activity affecting the protein synthesis.
To qualitatively evaluate translation accuracy in the presence of antibiotics, E. coli JW5503 [34] (kanamycin resistance cassette removed as per) transformed with pJC27 plasmids was utilized. The plasmids encode the β-galactosidase gene containing a mutation in its active center (E537: GAA→GAC/GGG), alongside a control plasmid without the mutation. Active β-galactosidase synthesis could only occur if translation errors were introduced. Petri dishes (9 cm) containing 20 mL of solid LB agar (1.5%) supplemented with chloramphenicol (11.3 μg/mL) and X-Gal (80 μg/mL) were prepared. A secondary layer comprising 3.5 mL of LB agar (0.6%), supplemented with 11.3 μg/mL chloramphenicol and 0.5 mL of liquid culture (A600~1.0), was added and allowed to solidify. Antibiotics were applied to the plates in 1 μL aliquots at the following concentrations: 50 mg/mL for 4a, 4b, 6a, 6b, and tobramycin; 5 mg/mL for streptomycin and kanamycin; and 1 mg/mL for rifampicin. Plates were incubated at 37 °C for 18 h. […] Results were documented using a Samsung Galaxy Tab A71 camera.

[3] = tested on: resistant clinical isolates of P. aeruginosa; assay: MIC against resistant clinical isolates of P. aeruginosa; type: cell-based; conditions: for MIC: Pseudomonas aeruginosa
Experimental: as §1, §2, §3, §4

M. smegmatis ATCC 607 = assay: MIC, broth microdilution, M. smegmatis ATCC 607; type: cell-based; conditions: Mycolicibacterium smegmatis, ATCC607, Table 1, read-out: MIC
Experimental: as §1, §2, §3, §4

[4] = P. aeruginosa strain, Table 2 column 3, head prints 27853
[5] = P. aeruginosa strain, Table 2 column 4, head prints 27853
[6] = P. aeruginosa strain, Table 2 column 5, head prints 27853
[7] = P. aeruginosa strain, Table 2 column 6, head prints 27853
[8] = P. aeruginosa strain, Table 2 column 7, head prints 27853
[9] = multidrug-resistant clinical isolates P. aeruginosa 21653 and P. aeruginosa 21571

NCCNC[C@H]1O[C@H](O[C@@H]2[C@@H](O)[C@H](O[C@H]3O[C@H](CN)[C@@H](O)C[C@H]3N)[C@@H](N)C[C@H]2N)[C@H](O)[C@@H](N)[C@@H]1O [Compound 4a, 6″-(2-Aminoethyamino)-6″-deoxytobramycin acetate]
MIC (E. coli ATCC 25922): 0.5 µg/mL | MIC (E. coli JW5503): 2 µg/mL | MIC (P. aeruginosa ATCC 27853): 1 µg/mL | IC50 at 72 h (MTT cytotoxicity assay): > 140 µg/mL | % control signal (relative maximal rate of firefly luciferase accumulation in vitro) [1]: 0.02% | induction of translation errors (blue staining at edge of inhibition zone) [2]: caused a blue coloring of the bacterial lawn | MIC [3, 4]: 16 µg/mL | MIC [3, 5]: 32 µg/mL | MIC [3, 6]: > 32 µg/mL | MIC [3, 7]: > 32 µg/mL | MIC [3, 8]: 32 µg/mL | MIC [3, 9]: 16 to 32 µg/mL | MIC (M. smegmatis ATCC 607): 0.125 µg/mL

NCCCNC[C@H]1O[C@H](O[C@@H]2[C@@H](O)[C@H](O[C@H]3O[C@H](CN)[C@@H](O)C[C@H]3N)[C@@H](N)C[C@H]2N)[C@H](O)[C@@H](N)[C@@H]1O [Compound 4b, 6″-(3-Aminopropyl-1-amino)-6″-deoxytobramycin acetate]
MIC (E. coli ATCC 25922): 1 µg/mL | MIC (E. coli JW5503): 8 µg/mL | MIC (P. aeruginosa ATCC 27853): 8 µg/mL | IC50 at 72 h (MTT cytotoxicity assay): > 140 µg/mL | % control signal (relative maximal rate of firefly luciferase accumulation in vitro) [1]: 7% | induction of translation errors (blue staining at edge of inhibition zone) [2]: caused a blue coloring of the bacterial lawn | MIC [3, 4]: 32 µg/mL | MIC [3, 5]: 32 µg/mL | MIC [3, 6]: > 32 µg/mL | MIC [3, 7]: > 32 µg/mL | MIC [3, 8]: > 32 µg/mL | MIC (M. smegmatis ATCC 607): 0.125 µg/mL

N=C(N)NCCNC[C@H]1O[C@H](O[C@@H]2[C@@H](O)[C@H](O[C@H]3O[C@H](CN)[C@@H](O)C[C@H]3N)[C@@H](N)C[C@H]2N)[C@H](O)[C@@H](N)[C@@H]1O [Compound 6a, 6″-(2-Guanidinoethylamino)-6″-deoxytobramycin acetate]
MIC (E. coli ATCC 25922): 1 µg/mL | MIC (E. coli JW5503): 4 µg/mL | MIC (P. aeruginosa ATCC 27853): 1 µg/mL | IC50 at 72 h (MTT cytotoxicity assay): > 140 µg/mL | % control signal (relative maximal rate of firefly luciferase accumulation in vitro) [1]: 0.4% | induction of translation errors (blue staining at edge of inhibition zone) [2]: caused a blue coloring of the bacterial lawn | MIC [3, 4]: 16 µg/mL | MIC [3, 5]: 16 µg/mL | MIC [3, 6]: > 32 µg/mL | MIC [3, 7]: 32 µg/mL | MIC [3, 8]: 32 µg/mL | MIC [3, 9]: 16 to 32 µg/mL | MIC (M. smegmatis ATCC 607): 0.125 µg/mL

N=C(N)NCCCNC[C@H]1O[C@H](O[C@@H]2[C@@H](O)[C@H](O[C@H]3O[C@H](CN)[C@@H](O)C[C@H]3N)[C@@H](N)C[C@H]2N)[C@H](O)[C@@H](N)[C@@H]1O [Compound 6b, 6″-(3-Guanidinopropyl-1-amino)-6″-deoxytobramycin acetate]
MIC (E. coli ATCC 25922): 2 µg/mL | MIC (E. coli JW5503): 8 µg/mL | MIC (P. aeruginosa ATCC 27853): 2 µg/mL | IC50 at 72 h (MTT cytotoxicity assay): > 140 µg/mL | % control signal (relative maximal rate of firefly luciferase accumulation in vitro) [1]: 21% | induction of translation errors (blue staining at edge of inhibition zone) [2]: caused a blue coloring of the bacterial lawn | MIC [3, 4]: 16 µg/mL | MIC [3, 5]: 32 µg/mL | MIC [3, 6]: > 32 µg/mL | MIC [3, 7]: > 32 µg/mL | MIC [3, 8]: > 32 µg/mL | MIC (M. smegmatis ATCC 607): 0.25 µg/mL

NC[C@H]1O[C@H](O[C@H]2[C@H](O)[C@@H](O[C@H]3O[C@H](CO)[C@@H](O)[C@H](N)[C@H]3O)[C@H](N)C[C@@H]2N)[C@H](N)C[C@@H]1O [Tobramycin, tobramycin]
MIC (E. coli ATCC 25922): 0.25 µg/mL (≈ 0.535 µM) | MIC of control antibiotic (E. coli ATCC 25922; quality control, must fall in acceptable ranges of [30]): 0.25 to 1 µg/mL | MIC (E. coli JW5503): 1 µg/mL (≈ 2.14 µM) | MIC of control antibiotic (P. aeruginosa ATCC 27853; P. aeruginosa ATCC 27853, quality control, must fall in acceptable ranges of [30]): 0.25 to 1 µg/mL | MIC (P. aeruginosa ATCC 27853): 0.5 µg/mL (≈ 1.07 µM) | IC50 at 72 h (MTT cytotoxicity assay): 58 ± 3 µg/mL (≈ 124 µM) | % control signal (relative maximal rate of firefly luciferase accumulation in vitro) [1]: 0.01% | induction of translation errors (blue staining at edge of inhibition zone) [2]: increase the misreading | MIC [3, 4]: > 128 µg/mL | MIC [3, 5]: > 128 µg/mL | MIC [3, 6]: > 128 µg/mL | MIC [3, 7]: > 32 µg/mL | MIC [3, 8]: > 32 µg/mL | resistance index ([3]; resistant clinical isolates of P. aeruginosa strains): > 256 | MIC (M. smegmatis ATCC 607): 0.06 µg/mL (≈ 0.128 µM)
